The target of assay [1] is T1, GIPR (Homo sapiens, UniProt P48546, Y36A).
T1 sequence (P48546 22-466 Y36A): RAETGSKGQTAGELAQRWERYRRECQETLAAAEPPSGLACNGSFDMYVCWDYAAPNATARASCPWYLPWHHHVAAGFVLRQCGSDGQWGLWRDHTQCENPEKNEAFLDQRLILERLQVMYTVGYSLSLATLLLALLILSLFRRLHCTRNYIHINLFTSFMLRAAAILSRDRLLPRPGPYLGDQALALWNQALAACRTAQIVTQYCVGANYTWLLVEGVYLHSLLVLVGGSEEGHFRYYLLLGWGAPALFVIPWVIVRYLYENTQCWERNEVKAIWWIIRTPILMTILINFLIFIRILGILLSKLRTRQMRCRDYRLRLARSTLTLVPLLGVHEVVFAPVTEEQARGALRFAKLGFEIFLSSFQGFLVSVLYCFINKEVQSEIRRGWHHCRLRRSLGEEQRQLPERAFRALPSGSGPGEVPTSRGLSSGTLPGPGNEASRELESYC
The assay can be described thus: cAMP accumulation assay (LANCE Ultra cAMP kit), GIPR WT, mutant or modified constructs. It is filed as cell-based. On the set-up: acylated tirzepatide to the full-length or modified; Flag; expressed in transfected cells; host or cells: HEK293T. The conditions noted are these: GIPR Y36A, HEK293T; for EC50: read-out: cAMP pEC50 (converted). A digest of the protocol:
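HEK293T cells transiently transfected with human GIPR WT or mutant constructs (pcDNA3.1), used after 24 h. The cells were stimulated with peptide agonists for 40 min at RT in HBSS with 5 mM HEPES, 0.1% BSA or casein, and 0.5 mM IBMX. cAMP was read by LANCE Ultra TR-FRET (Eu-cAMP tracer/ULight anti-cAMP, 1 h RT, 620/650 nm).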
On the technique in general: Cyclic AMP is a second messenger, typically raised through Gs and lowered through Gi signalling.

In assay [2] the target is T2, GIPR (Homo sapiens, UniProt P48546, W90A).
T2 sequence (P48546 22-466 W90A): T1 sequence (P48546 22-466 Y36A) with A15Y, W69A
Description: Whole-cell binding assay, competition with 125I-GIP1-42. As to conditions: GIPR W90A, CHO-K1. On the set-up: acylated tirzepatide to the full-length or modified; Flag; expressed in transfected cells. A digest of the protocol:
(§1)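 Transiently transfected CHO-K1 cells expressing WT or mutant GIPR were washed in F-12 with 0.1% BSA or 0.1% casein and 33 mM HEPES, then incubated 2 h at 37 °C. After ice-cold PBS washes, cells were lysed and bound radioactivity counted (CPM).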

Assay [3] addresses T1, GIPR. The description is as above. More on the design: acylated tirzepatide to the full-length or modified; Flag; expressed in transfected cells. As to conditions: GIPR Y36A, CHO-K1; for IC50: read-out: binding pIC50 (converted). A digest of the protocol: as §1

What is called Emax is the maximal effect, on the per cent scale that the assay sets.

SMILES strings stand for the structures. Numbering of substitutions follows the chain as printed.

For the molecule `CCCCCCCCCCCCCCCC(=O)N[C@@H](CCC(=O)NCCCC[C@H](NC(=O)[C@H](CC(=O)O)NC(=O)[C@H](CO)NC(=O)[C@@H](NC(=O)[C@H](Cc1ccccc1)NC(=O)[C@@H](NC(=O)CNC(=O)[C@H](CCC(N)=O)NC(=O)C(C)(C)NC(=O)[C@@H](N)Cc1c[nH]cn1)[C@@H](C)O)[C@@H](C)O)C(=O)N[C@@H](CO)C(=O)N[C@@H](CCCCN)C(=O)N[C@@H](Cc1ccc(O)cc1)C(=O)N[C@@H](CC(C)C)C(=O)N[C@@H](CC(=O)O)C(=O)N[C@@H](CCC(=O)O)C(=O)N[C@@H](CCCNC(=N)N)C(=O)N[C@@H](C)C(=O)N[C@@H](C)C(=O)N[C@@H](CCC(N)=O)C(=O)N[C@@H](CC(=O)O)C(=O)N[C@@H](Cc1ccccc1)C(=O)N[C@H](C(=O)N[C@@H](CCC(N)=O)C(=O)N[C@@H](Cc1c[nH]c2ccccc12)C(=O)N[C@@H](CC(C)C)C(=O)N[C@@H](CC(C)C)C(=O)N[C@@H](CC(=O)O)C(=O)NCC(=O)NCC(=O)N1CCC[C@H]1C(=O)N[C@@H](CO)C(=O)N[C@@H](CO)C(=O)NCC(=O)N[C@@H](C)C(=O)N1CCC[C@H]1C(=O)N1CCC[C@H]1C(=O)N1CCC[C@H]1C(=O)N[C@@H](CO)C(N)=O)C(C)C)C(=O)O` [Peptide 20], the EC50 at GIPR [1] was 0.0123 nM. For the same molecule, the Emax at GIPR [1] (HEK-293T) amounted to 100 ± 1.62%. Further, the “binding Span” value came out at 3.87 ± 1.12 % WT at GIPR [2] and 48.19 ± 2.73 % WT on GIPR [3]. Besides, the IC50 on GIPR [2] (read-out: binding pIC50 (converted)) was 2.69 nM; at GIPR [3] it was 16.2 nM.
For the molecule `CC[C@H](C)[C@H](NC(=O)[C@H](CC(C)C)NC(=O)[C@H](Cc1c[nH]c2ccccc12)NC(=O)[C@H](CCC(N)=O)NC(=O)[C@@H](NC(=O)[C@H](Cc1ccccc1)NC(=O)[C@H](C)NC(=O)[C@H](CCCCNC(=O)COCCOCCNC(=O)COCCOCCNC(=O)CC[C@H](NC(=O)CCCCCCCCCCCCCCCCCCC(=O)O)C(=O)O)NC(=O)[C@H](CCC(N)=O)NC(=O)[C@H](C)NC(=O)[C@@H](NC(=O)[C@H](CCCCN)NC(=O)[C@H](CC(=O)O)NC(=O)[C@H](CC(C)C)NC(=O)C(C)(C)NC(=O)[C@@H](NC(=O)[C@H](CO)NC(=O)[C@H](Cc1ccc(O)cc1)NC(=O)[C@H](CC(=O)O)NC(=O)[C@H](CO)NC(=O)[C@@H](NC(=O)[C@H](Cc1ccccc1)NC(=O)[C@@H](NC(=O)CNC(=O)[C@H](CCC(=O)O)NC(=O)C(C)(C)NC(=O)[C@@H](N)Cc1ccc(O)cc1)[C@@H](C)O)[C@@H](C)O)[C@@H](C)CC)[C@@H](C)CC)C(C)C)C(=O)N[C@@H](C)C(=O)NCC(=O)NCC(=O)N1CCC[C@H]1C(=O)N[C@@H](CO)C(=O)N[C@@H](CO)C(=O)NCC(=O)N[C@@H](C)C(=O)N1CCC[C@H]1C(=O)N1CCC[C@H]1C(=O)N1CCC[C@H]1C(=O)N[C@@H](CO)C(N)=O` [Tirzepatide], the EC50 at GIPR [1] is 0.0589 nM. The “binding pIC50” value at GIPR [2] is “N.B”. At GIPR [3], the “binding Span” value is recorded as 40.56 ± 12.64 % WT and the IC50 is 275 nM.

The record behind these values is paper PMC8881610 (Nature Communications, 2022).
